Assay results as given in the NIST ThermoML archive (doi:10.1016/j.jct.2016.10.023).
± gives the expanded uncertainty stated by the source.

Assay: xn = mol fraction of the nth substance listed
Conditions: Constant-volume piezometry

CCCCC [pentane] + CCCO
Conditions | mass density [kg/m3]
513.15 K, 5373 kPa, Fluid (supercritical or subcritical phases), x1 = 0.5 | 200.49 ± 1.1
513.15 K, 5432 kPa, Fluid (supercritical or subcritical phases), x1 = 0.5 | 210.33 ± 1.1
513.15 K, 5454 kPa, Fluid (supercritical or subcritical phases), x1 = 0.9 | 202.47 ± 1
513.15 K, 5473 kPa, Fluid (supercritical or subcritical phases), x1 = 0.8 | 193.25 ± 0.99
513.15 K, 5506 kPa, Fluid (supercritical or subcritical phases), x1 = 0.5 | 224.16 ± 1.1
513.15 K, 5598 kPa, Fluid (supercritical or subcritical phases), x1 = 0.5 | 241.62 ± 1.2
513.15 K, 5618 kPa, Fluid (supercritical or subcritical phases), x1 = 0.5 | 250.82 ± 1.3
513.15 K, 5669 kPa, Fluid (supercritical or subcritical phases), x1 = 0.9 | 220.79 ± 1.1
513.15 K, 5677 kPa, Fluid (supercritical or subcritical phases), x1 = 0.5 | 259.87 ± 1.3
513.15 K, 5710 kPa, Fluid (supercritical or subcritical phases), x1 = 0.8 | 213.96 ± 1.1
513.15 K, 5746 kPa, Fluid (supercritical or subcritical phases), x1 = 0.5 | 270.69 ± 1.4
513.15 K, 5776 kPa, Fluid (supercritical or subcritical phases), x1 = 0.8 | 219.73 ± 1.1
513.15 K, 5792 kPa, Liquid, x1 = 0.2 | 418.94 ± 0.86
513.15 K, 5837 kPa, Fluid (supercritical or subcritical phases), x1 = 0.9 | 233.18 ± 1.2
513.15 K, 5858 kPa, Fluid (supercritical or subcritical phases), x1 = 0.5 | 282.52 ± 1.4
513.15 K, 5880 kPa, Fluid (supercritical or subcritical phases), x1 = 0.9 | 236.64 ± 1.2
513.15 K, 5929 kPa, Fluid (supercritical or subcritical phases), x1 = 0.9 | 241.05 ± 1.3
513.15 K, 5974 kPa, Fluid (supercritical or subcritical phases), x1 = 0.9 | 244.36 ± 1.3
513.15 K, 5983 kPa, Fluid (supercritical or subcritical phases), x1 = 0.8 | 234.82 ± 1.2
513.15 K, 6090 kPa, Fluid (supercritical or subcritical phases), x1 = 0.5 | 298.82 ± 1.5
513.15 K, 6119 kPa, Fluid (supercritical or subcritical phases), x1 = 0.8 | 245.46 ± 1.2
513.15 K, 6286 kPa, Fluid (supercritical or subcritical phases), x1 = 0.8 | 258.7 ± 1.3
513.15 K, 6470 kPa, Fluid (supercritical or subcritical phases), x1 = 0.5 | 320.16 ± 1.6
513.15 K, 6531 kPa, Fluid (supercritical or subcritical phases), x1 = 0.8 | 272.67 ± 1.4
513.15 K, 6531 kPa, Fluid (supercritical or subcritical phases), x1 = 0.9 | 282.15 ± 1.4
513.15 K, 6559 kPa, Fluid (supercritical or subcritical phases), x1 = 0.5 | 325.44 ± 1.6
513.15 K, 6787 kPa, Fluid (supercritical or subcritical phases), x1 = 0.8 | 288.53 ± 1.5
513.15 K, 6884 kPa, Fluid (supercritical or subcritical phases), x1 = 0.9 | 301.84 ± 1.5
513.15 K, 6962 kPa, Fluid (supercritical or subcritical phases), x1 = 0.5 | 344.73 ± 1.7
513.15 K, 7033 kPa, Fluid (supercritical or subcritical phases), x1 = 0.8 | 299.35 ± 1.5
513.15 K, 7191 kPa, Fluid (supercritical or subcritical phases), x1 = 0.9 | 312.49 ± 1.6
513.15 K, 7508 kPa, Fluid (supercritical or subcritical phases), x1 = 0.8 | 315.53 ± 1.6
513.15 K, 7785 kPa, Fluid (supercritical or subcritical phases), x1 = 0.5 | 373.08 ± 1.9
513.15 K, 7943 kPa, Fluid (supercritical or subcritical phases), x1 = 0.9 | 334.21 ± 1.7
513.15 K, 8099 kPa, Fluid (supercritical or subcritical phases), x1 = 0.8 | 334.03 ± 1.7
513.15 K, 8570 kPa, Fluid (supercritical or subcritical phases), x1 = 0.8 | 345.56 ± 1.7
513.15 K, 8766 kPa, Liquid, x1 = 0.2 | 470.65 ± 0.96
513.15 K, 8986 kPa, Fluid (supercritical or subcritical phases), x1 = 0.5 | 398.35 ± 2
513.15 K, 9031 kPa, Fluid (supercritical or subcritical phases), x1 = 0.9 | 354.32 ± 1.8
513.15 K, 9551 kPa, Fluid (supercritical or subcritical phases), x1 = 0.8 | 362.13 ± 1.8
513.15 K, 10333 kPa, Fluid (supercritical or subcritical phases), x1 = 0.5 | 417.46 ± 2.1
513.15 K, 12509 kPa, Fluid (supercritical or subcritical phases), x1 = 0.5 | 441.21 ± 2.2
513.15 K, 13550 kPa, Fluid (supercritical or subcritical phases), x1 = 0.2 | 509.9 ± 2.6
513.15 K, 13550 kPa, Liquid, x1 = 0.2 | 509.9 ± 1
513.15 K, 13634 kPa, Fluid (supercritical or subcritical phases), x1 = 0.5 | 451.54 ± 2.3
513.15 K, 13786 kPa, Fluid (supercritical or subcritical phases), x1 = 0.9 | 407.53 ± 2
513.15 K, 14551 kPa, Fluid (supercritical or subcritical phases), x1 = 0.8 | 418.46 ± 2.1
513.15 K, 16655 kPa, Fluid (supercritical or subcritical phases), x1 = 0.5 | 468.45 ± 2.4
513.15 K, 22117 kPa, Liquid, x1 = 0.2 | 547.38 ± 1.1
513.15 K, 24001 kPa, Fluid (supercritical or subcritical phases), x1 = 0.8 | 467 ± 2.4
513.15 K, 30101 kPa, Fluid (supercritical or subcritical phases), x1 = 0.5 | 519.68 ± 2.6
513.15 K, 33469 kPa, Fluid (supercritical or subcritical phases), x1 = 0.8 | 496.43 ± 2.5
513.15 K, 35193 kPa, Liquid, x1 = 0.2 | 581.71 ± 1.2
513.15 K, 42801 kPa, Liquid, x1 = 0.2 | 595.3 ± 1.2
514.15 K, 4473 kPa, Gas, x1 = 0.2 | 150.41 ± 0.53
514.15 K, 4778 kPa, Liquid, x1 = 0.2 | 341.42 ± 0.76
514.15 K, 4795 kPa, Liquid, x1 = 0.2 | 350.74 ± 0.76
515.15 K, 4522 kPa, Gas, x1 = 0.2 | 150.4 ± 0.49
515.15 K, 4645 kPa, Fluid (supercritical or subcritical phases), x1 = 0.2 | 175.68 ± 2.2
515.15 K, 4818 kPa, Fluid (supercritical or subcritical phases), x1 = 0.2 | 318.9 ± 2.7
516.15 K, 4838 kPa, Fluid (supercritical or subcritical phases), x1 = 0.2 | 272.45 ± 2.2
516.15 K, 4852 kPa, Fluid (supercritical or subcritical phases), x1 = 0.2 | 290.64 ± 2
516.15 K, 4872 kPa, Fluid (supercritical or subcritical phases), x1 = 0.2 | 306.93 ± 1.6
516.15 K, 4877 kPa, Fluid (supercritical or subcritical phases), x1 = 0.2 | 311.17 ± 1.6
516.15 K, 4909 kPa, Fluid (supercritical or subcritical phases), x1 = 0.2 | 318.89 ± 2.4
517.15 K, 4912 kPa, Fluid (supercritical or subcritical phases), x1 = 0.2 | 272.44 ± 2.1
517.15 K, 4958 kPa, Fluid (supercritical or subcritical phases), x1 = 0.2 | 306.92 ± 2.5

Liquid, x1 = 0.2
Conditions | mass density [kg/m3]
513.45 K | 344.22 ± 2.1
513.65 K | 341.43 ± 2
514.95 K | 318.91 ± 1.9
515.15 K | 311.18 ± 1.9
515.55 K | 306.94 ± 1.9
515.95 K | 290.64 ± 1.8
516.15 K | 272.45 ± 1.6
